In paper PMC11874195, “Structural requirements of KAI2 ligands for activation of signal transduction” (Proceedings of the National Academy of Sciences of the …, 2025):

Legend:
KAI2 [1] = target: T1, KAI2 (Arabidopsis thaliana, UniProt Q9SZU7); assay: biochemical; set-up: Competitive inhibition of dYLG (0.5 uM) hydrolysis by purified recombinant KAI2, fluorescence read-out; settings: 0.5 uM dYLG substrate, 10 min
T1 sequence (Q9SZU7 1-270): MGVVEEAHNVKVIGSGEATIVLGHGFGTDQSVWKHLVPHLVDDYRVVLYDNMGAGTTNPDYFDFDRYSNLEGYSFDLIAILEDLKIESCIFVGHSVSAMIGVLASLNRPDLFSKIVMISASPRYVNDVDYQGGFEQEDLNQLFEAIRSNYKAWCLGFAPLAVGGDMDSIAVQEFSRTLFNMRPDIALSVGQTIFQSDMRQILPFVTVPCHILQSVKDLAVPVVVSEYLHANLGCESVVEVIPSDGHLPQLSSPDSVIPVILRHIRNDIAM
Protocol: The purified KAI2 (1 µg) was incubated with dYLG (0.5 µM) in the absence or presence of dMGer analogs for 10 min. Fluorescence intensity was measured using the Varioskan LUX plate reader (Thermo Fisher Scientific), with excitation and detection wavelengths of 480 and 520 nm, respectively. The IC50 values were calculated using the Enzyme Kinetics module of the SigmaPlot 14 program. Additional detailed methods are described in SI Appendix, Materials and Methods. To produce KAI2 protein, KAI2 cDNA was cloned into the pCold II vector, and KAI2 protein was expressed and purified as previously described(5). Briefly, the plasmid was transformed into BL21, the resulting transformant cells were precultured overnight in 2.5 mL LB medium and then cells were grown in 200 mL TB medium at 35 °C to an OD600 ~0.6. Protein expression was induced by IPTG addition, and inductions were conducted at 16 °C for 20 h. Cells were harvested and then suspended in the protein extraction buffer (50 mM Tris-HCl pH 8.0, BugBuster protein extraction reagent, and 20U of Benzonase, and the constituent proteins were purified by affinity column chromatography. The purified KAI2 (1 µg) was incubated with dYLG (0.5 µM) in the absence or presence of dMGer analogs for 10 min. We first conducted competitive inhibition assays to determine whether the carba-dMGers could bind to the ligand binding pocket of KAI2. In these assays, a profluorescent probe, desmethyl-Yoshimulactone green (dYLG), was used as a substrate, and the KAI2 binding activity was assessed by the inhibitor concentrations necessary to halve the response (IC50) for fluorophore formation. […] Differential scanning fluorimetry (DSF) assays were also performed to evaluate the effect of the dMGer analogs on KAI2 destabilization. In the DSF assay, ligand–protein interactions are monitored by changes in the melting temperature (Tm); effective agonists, such as GR24^ent^-5DS and dGR24^ent^-5DS, lower the Tm value, that is, thermally destabilize the KAI2 protein ([15], [35]).

KAI2 [2] = target: T1, KAI2; assay: competitive dYLG hydrolysis assay with purified KAI2; also DSF and cleavage kinetics (K1/[…] =[…]); format: biochemical
KAI2 [3] = target: T1, KAI2; assay: X-ray crystal structure at […] Å (soak); also dYLG competition IC50 and DSF; format: biochemical
KAI2 [4] = target: T1, KAI2; assay: competitive dYLG hydrolysis assay with purified KAI2; also DSF (Tm […] to […] °C) and HPLC hydrolysis (K1/[…] =[…]); format: biochemical

SMILES | IC50 (KAI2 [1]) [µM] | also measured
O=C1CC(CCc2ccccc2Br)O1 (stereo not shown) [2Br-PEO, 4-(2-bromophenethyl)oxetan-2-one] | 0.22 | –
O=C1C=C[C@H](Oc2ccc(-c3ccccc3)cc2[N+](=O)[O-])C1 [(+)-1′-carba-dMGer] | – | IC50 (KAI2 [2]): 78 µM
O=C1C=C[C@H](Cc2ccc(-c3ccccc3)cc2[N+](=O)[O-])O1 [(+)-6′-carba-dMGer] | – | IC50 (KAI2 [3]): 2.5 µM
O=C1C=C[C@H](Oc2ccc(-c3ccccc3)cc2[N+](=O)[O-])O1 [(+)-dMGer] | – | IC50 (KAI2 [4]): 0.16 µM
O=C1C=C[C@@H](Oc2ccc(-c3ccccc3)cc2[N+](=O)[O-])C1 [(−)-1′-carba-dMGer] | 152 | –
O=C1C=C[C@@H](Cc2ccc(-c3ccccc3)cc2[N+](=O)[O-])O1 [(−)-6′-carba-dMGer] | 11 | –
O=C1C=C[C@@H](Oc2ccc(-c3ccccc3)cc2[N+](=O)[O-])O1 [(−)-dMGer] | 3.6 | –
